Laboratory results published in US12528783B2, “PqsR inverse agonists” (priority 2020, dated 2026).

Experiments:
[1] = tested on: signal molecule production (HHQ, PQS); details: at 15 μM; cited from earlier work
[2] = tested on: virulence factor pyocyanin production; details: in cellulo; read-out: inhibition of virulence factor pyocyanin production IC50; cited from earlier work
[3] = tested on: production of signal molecules HHQ and PQS; details: QS inhibitors targeting PqsA; read-out: IC50, reduction of production of signal molecules HHQ and PQS; cited from earlier work
[4] = Kinetic Turbidimetric Aqueous Solubility; format: physicochemical; details: aqueous buffer, kinetic from dmso stock, PBS buffer, room temperature
Experimental: Kinetic Turbidimetric Aqueous Solubility at room temperature for 5 min. Test compound was diluted in PBS buffer to give a range of concentrations (typically 0.4, 2, 4, 20, 40, 100, and 200 μM, final DMSO concentration 2%) and incubated at room temperature for 5 min. Absorbance was measured at a wavelength of 620 nm and the solubility was estimated from the concentration of test compound that produces an increase in absorbance above the vehicle control (i.e., […]). Data was analyzed by fitting a four parameter sigmoidal function to the measured and normalized absorbances and AUC calculation providing access to Log S (decadic logarithm of the solubility).

[5] = Metabolic stability in mouse liver microsomes (MLM); format: in vitro ADME; details: 1 μM compound, 0.5 mg/mL MLM, 1 mM NADPH, 37° C., read-out: half-life (t1/2) towards MLM
Experimental: For the evaluation of phase I metabolic stability, the compound (1 μM) was incubated with 0.5 mg/mL MLM (Corning) and 1 mM NADPH at 37° C. for 0, 5, 10, 15 and 30 min. The metabolic stability of Verapamil, Diphenhydramine and Benzydamine (1 μM each) were determined in parallel to confirm the enzymatic activity of the MLM. The incubation was stopped by addition of 2 volumes of acetonitrile containing internal standard (1 μM Leucine Enkephaline). Samples were centrifuged (15 min, 3,500 rpm). Concentration of the remaining test compound at the different time points was analyzed by HPLC-MS/MS and used to determine half-life (t1/2).

[6] = tested on: P. aeruginosa pyocyanin production; experiment: Pyocyanin assay; format: cell-based; details: Pseudomonas aeruginosa, PA14, 16 h, read-out: IC50-value towards pyocyanin production, PA14 in PPGAS medium, 16 h
Experimental: Inhibition of P. aeruginosa pyocyanin production by compounds was determined photometrically as described before. In short, an overnight culture of PA14 in PPGAS medium was washed, diluted in medium to a start OD600 of 0.02, and incubated for 16 h (37° C., 200 rpm, relative humidity 75%) in the presence of test compounds. Then, cultures were extracted with chloroform and re-extracted with 0.2 M HCl. Protonated red colored pyocyanin was determined by measuring OD520 and normalizing to OD600.

PqsR = molecular target: T1, PqsR (Pseudomonas aeruginosa, UniProt Q9I4X0); experiment: PqsR inverse agonistic activity, reporter gene assay in E. coli; format: cell-based
T1 construct: expressed in transfected cells; host or cells: Escherichia coli DH5a carrying pEAL08-2
Experimental: Inhibition of pqsR-dependent gene expression of test compounds was determined in an E. coli based-galactosidase reporter gene assay. Escherichia coli DH5a was transfected with pEAL08-2 plasmid encoding pqsR under control of promoter tac and β-galactosidase reporter gene lacZ under control of promoter pqsA. Antagonistic effects of compounds were evaluated in the presence of/in competition to 50 nM PQS. A positive control was used to ensure the reliability of individual assays. First, PQS was diluted in methanol and added to the wells of a glass coated 96-deep-well plate, and the solvent was evaporated. Then, compounds were added in 5 μL DMSO to final concentrations of 0.001-10 μM. Overnight cultures of E. coli DH5a×pEAL08-2 were diluted 1:100 in LB medium with ampicillin (50 μg/ml) and incubated at 37° C. with shaking until it reached an OD600 of 0.2. Finally, 995 μL of culture was added to each well and the β-galactosidase activity was determined by ortho-nitrophenyl-β-galactoside conversion in permeabilized cells after a 2.5 h incubation period (37° C., 180 rpm). OD600, OD420, and OD550 were measured using POLARstar Omega (BMG Labtech, Ortenberg, Germany), and the activity was expressed as ratio of the slope of B-galactosidase activity between basal control (no PQS) and solvent control. IC50 values of antagonists were determined by variation of the concentration of the test compounds.

T1 sequence (Q9I4X0 whole entry): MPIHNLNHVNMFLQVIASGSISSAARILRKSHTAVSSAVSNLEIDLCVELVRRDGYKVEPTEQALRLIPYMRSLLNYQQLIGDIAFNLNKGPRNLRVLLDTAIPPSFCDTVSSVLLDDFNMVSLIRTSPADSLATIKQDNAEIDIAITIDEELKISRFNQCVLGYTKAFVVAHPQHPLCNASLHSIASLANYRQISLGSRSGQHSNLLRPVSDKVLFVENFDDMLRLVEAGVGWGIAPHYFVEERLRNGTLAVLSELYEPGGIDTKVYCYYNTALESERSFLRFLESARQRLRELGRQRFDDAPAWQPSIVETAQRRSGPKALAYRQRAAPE

Structure (SMILES) | reduction of HHQ production [1] | reduction of PQS production [1] | IC50 [2] | IC50 [3] | solubility at 5 min [4] | half-life at 1 μM [5] | IC50 [6] | IC50 (PqsR)
CCCCCCCc1[nH]c2ccc([N+](=O)[O-])cc2c(=O)c1C(N)=O [2-heptyl-6-nitro-4-oxo-1,4-dihydroquinoline-3-carboxamide] | 54% | 37% | 2000 nM |  |  |  |  | 
Nc1cccc(F)c1C(=O)O [Compound 6FABA] |  |  |  | ~100000 nM |  |  |  | 
O=[N+]([O-])c1cc(-c2ncc(CNc3cc(Cl)nc(C(F)(F)F)c3)cn2)ccc1Cl [Compound 08] |  |  |  |  | > 10 µM | > 1 h | 101 to 200 nM | 
O=[N+]([O-])c1cccc(-c2ncc(CNc3cc(Cl)nc(C(F)(F)F)c3)cn2)c1 [Compound 09] |  |  |  |  | > 10 µM | 0.517 to 1 h | 201 to 500 nM | 
NC(=O)c1cccc(Nc2ccc3[nH]c(CSc4ccnc(C(F)(F)F)c4)nc3c2)c1 [Compound 36] |  |  |  |  | > 50 µM | 0.517 to 1 h |  | 251 to 1000 nM
FC(F)c1cccc(Nc2ccc3[nH]c(CSc4ccnc(C(F)(F)F)c4)nc3c2)c1 [Compound 37] |  |  |  |  | > 10 µM | > 1 h | 101 to 200 nM | ≤ 50 nM
Fc1ccc(Nc2ccc3[nH]c(CSc4ccnc(C(F)(F)F)c4)nc3c2)c(F)c1 [Compound 45] |  |  |  |  | > 25 µM | > 1 h | 101 to 200 nM | ≤ 50 nM
Fc1cc(Nc2ccccc2)cc2nc(CSc3ccnc(C(F)(F)F)c3)[nH]c12 [Compound 56] |  |  |  |  | > 25 µM |  | ≤ 100 nM | ≤ 50 nM
Cc1cc(Nc2ccccc2)cc2nc(CSc3ccnc(C(F)(F)F)c3)[nH]c12 [Compound 59] |  |  |  |  | > 10 µM |  | 101 to 200 nM | ≤ 50 nM
Fc1cccc(Nc2ccc3[nH]c(CNc4ccnc(C(F)(F)F)c4)nc3c2)c1 [Compound 61] |  |  |  |  | ≥ 100 µM |  | ≤ 100 nM | ≤ 50 nM
